For the assay, the target named is T1, recombinant human secreted phospholipase A2 (Homo sapiens, UniProt P14555).
T1 sequence (P14555 21-144): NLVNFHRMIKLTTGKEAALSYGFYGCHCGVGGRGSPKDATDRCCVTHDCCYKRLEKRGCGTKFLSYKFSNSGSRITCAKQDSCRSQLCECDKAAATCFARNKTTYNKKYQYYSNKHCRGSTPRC
In words: chromogenic assay for inhibitors of recombinant human secreted phospholipase A2. It is filed as biochemical. As to conditions: diheptanoyl thio-PC substrate, pH 7.5, 40° C. for 30 minutes, absorbance at 405 nanometers, titrated in triplicate. An excerpt:
The following chromogenic assay procedure was used to identify and evaluate inhibitors of recombinant human secreted phospholipase A2. The assay described herein has been adapted for high volume screening using 96 well microtiter plates. A general description of this assay method is found in the article, “Analysis of Human Synovial Fluid Phospholipase A2 on Short Chain Phosphatidylcholine-Mixed Micelles: Development of a Spectrophotometric Assay Suitable for a Microtiterplate Reader”, by Laure J. Reynolds, Lori L. Hughes, and Edward A Dennis, Analytical Biochemistry, 204, pp. 190–197, 1992 (the disclosure of which is incorporated herein by reference): […]
A measured volume of racemic dipheptanoyl thio PC supplied in chloroform at a concentration of 100 mg/ml is taken to dryness and redissolved in 10 millimolar TRITON X-100™ nonionic detergent aqueous solution. […]
• 1. […] Read absorbance of wells at 405 nanometers with an automatic plate reader.
Tests were done in triplicate. […] Compounds initially found to be active were re-assayed to confirm their activity and, if sufficiently active, IC50 values were determined. […] In all cases, % inhibition measured at 405 nanometers generated by enzyme reactions containing inhibitors relative to the uninhibited control reactions was determined. […]

Regarding `NC(=O)C1CCCCc2c1c1c(OCC(=O)O)cccc1n2Cc1ccccc1` (stereo not shown) [Example 1, (5-Benzyl-10-carbamoyl-5,6,7,8,9,10-hexahydro-cyclohepta[b]indol-1-yloxy)acetic Acid], the IC50 came to 0.248 µM.

(Values after patent US7109231B2, “Cyclohept[b]indole derivatives” (Eli Lilly and Company, priority 2001, dated 2006).)
